Test results taken from US20260125379A1, “PRODRUG OF JAK KINASE INHIBITOR” (E-nitiate Biopharmaceuticals (Hangzhou) Co., Ltd, priority 2022, published 2026).

Columns and labels:
JAK2 = JAK2 (Homo sapiens, UniProt O60674); experiment: JAK2 kinase inhibition assay (ULight-JAK-1 substrate, Eu-labeled anti-phosphotyrosine antibody); assay type: biochemical; conditions: JAK2 0.125 nM, substrate 50 nM, ATP 10 μM, 1 hour at room temperature
Experimental: (§1) Example A: Activity Detection of JAK Kinase Small Molecule Inhibitors
(§2) Kinase reaction buffer was prepared with the following components: 50 mM HEPES, pH 7.5, 1 mM EGTA, 10 mM MgCl2, 2 mM DTT, 0.01% Tween20.
(§3) Detection buffer was prepared by diluting 10× detection buffer to IX with deionized water in a ratio of 9:1.
(§4) JAK kinase was diluted with kinase reaction buffer to 4× final concentration (JAK1: 40 nM, JAK2: 0.5 nM).
(§5) ULight™-JAK-1 (Tyr1023) substrate was diluted with kinase reaction buffer to 200 nM (final concentration: 50 nM).
(§6) ATP was diluted with kinase reaction buffer to 4× final concentration (JAK1: 160 μM, JAK2: 40 μM).
(§7) Compound to be tested was dissolved with DMSO to obtain a 10 mM storage solution, which was diluted to desired concentrations by a 3-fold gradient; for each compound 10 concentration points were set, and the final concentration of the compound to be tested ranges from 10 μM to 0.5 nM.
(§8) EDTA was dissolved with 1× detection buffer to 40 mM (EDTA final concentration: 10 mM).
(§9) Eu-labeled detection antibody (anti-phosphotyrosine (PT66)) was diluted with 1× detection buffer to 8 nM (final antibody concentration: 2 nM).
(§10) (1) To a 384-well plate, 2.5 μL 4× kinase solution and 2.5 μL 4× test compound solution with different concentrations that have been diluted were added successively, each concentration was set in duplicate, and an enzyme solution blank control and a negative control (DMSO group) were also set.
(§11) (2) The 384-well plate was shaken to mix enzyme and compound well, and then centrifuged at 1000 rpm for 1 minute, and incubated at room temperature for 60 minutes.
(§12) (3) 2.5 μL 4× substrate solution was added to the 384-well plate and centrifuged at 1000 rpm for 1 minute.
(§13) (4) 2.5 μL 4× ATP solution was added to the 384-well plate and centrifuged at 1000 rpm for 1 minute, and then enzyme reaction was initiated.
(§14) (5) For JAK1 the reaction was carried out at room temperature for 2 hours, and for JAK2 the reaction was carried out at room temperature for 1 hour.
For the JAK2 reaction, the final concentrations of component are as follows: JAK2: 0.125 nM, substrate: 50 nM, ATP: 10 μM; and the final concentration of the tested compound ranges from 10 μM to 0.5 nM.
(§15) (7) After the enzyme reaction was completed, 5 μL 4× enzyme reaction termination solution was added to each well of the 384-well plate, and then centrifuged at 1000 rpm for 1 minute and incubated at room temperature for 5 minutes.
(§16) (8) 5 μL 4× detection antibody solution (the final concentration of detection antibody is 2 nM) was added to each well of the 384-well plate, and then centrifuged at 1000 rpm for 1 minute and incubated at room temperature for 1 hour.
(§17) (9) At the antibody incubation was completed, signal value of each well was measured on a Envision plate reader.
(§18) (1) The percentage inhibition rate corresponding to each concentration of the tested compound was calculated on the basis that the blank control of enzyme solution corresponds to 100% and the negative control (DMSO group) corresponds to 0%.
(§19) (2) A nonlinear regression analysis of the logarithm of the concentration of the detected compound and the corresponding percentage inhibition rate was performed in GraphPad Prism software to obtain the half-inhibiting concentration (IC50) of the tested compound.

[1] = Plasma pharmacokinetics in rats after single gavage; assay type: in vivo; conditions: SD rats
Experimental: (§20) Compounds A1, A2, A3, B3, B6 and B3 were administered once to SD rats by gavage. The concentrations of medicaments and metabolites thereof in plasma were collected and measured at different time points, and the pharmacokinetic parameters of each compound were calculated to study the pharmacokinetic characteristics of the compounds in plasma of SD rats. Fecal samples at 8 and 24 hours were collected simultaneously, and the concentrations of prodrugs and degraded products were detected to investigate the excretion recovery rate.
(§21) Rats were grouped in groups of 3, and all SD rats were fasted overnight (12 hours or more) the day before the experiment. On the day of the experiment, after weighing the body weight, the rats were administrated once with compound A1, A2, A3, B3, B6, and B3 by gavage respectively. SD rats were able to resume eating 4 hours after administration and were able to drink freely during the experiment. 0.20 mL of blood was collected from the jugular vein before administration and at 0.5, 1, 2, 4, 8, 12, and 24 hours after administration, respectively, and was placed in EDTA-K2 anticoagulation tube. All whole blood samples were centrifuged at 1500 g to 1600 g for 10 minutes within half an hour after collection to separate plasma, which was stored in a refrigerator at a temperature of between −90° C. and −60° C. for sample analysis. All the feces from the metabolic cage chassis were collected at 24 h after administration and weighed accurately. The required volume of homogenate liquid (aqueous solution containing 20% methanol) was added at a weight/volume ratio of 1:10, and the resultant was homogenized and analyzed.

[2] = Fecal excretion (cumulative recovery) in rats after single gavage; assay type: in vivo; conditions: feces, SD rats, administration group Compound A3 40 mg/kg by gavage
Experimental: as §20, §21

[3] = Pharmacokinetics in rats in vivo: A13 in plasma and colon tissue after equimolar A3 or A13; conditions: SD rats, A3 30 mg/kg vs A13 15 mg/kg (equal molar) by gavage, FIG. 1
Experimental: Compounds A3 and A13 were administered once to SD rats by gavage in an equal molar amount relative to the body weight of rats. The concentration of the medicaments and metabolites thereof in plasma and colon tissues were collected and measured at different time points, and the pharmacokinetic parameters of the compounds were calculated to compare the pharmacokinetic characteristics of the prodrug and the active metabolite in SD rats in vivo.
Rats were grouped in groups of 27, and all SD rats were fasted overnight (12 hours or more) the day before the experiment. On the day of the experiment, after weighing the body weight, the compounds A3 (30 mg/kg) and A13 (15 mg/kg) were administered once by gavage respectively. SD rats were able to resume eating after 4 hours of administration and were able to drink freely during the experiment. Plasma and colonic tissue were collected at 0.5, 1, 2, 4, 6, 8, 12, 24 and 48 hours after the administration to detect the concentration of A13 in the plasma and colon tissue homogenate liquid.

JAK1 = JAK1 (Homo sapiens, UniProt P23458); experiment: JAK1 kinase inhibition assay (ULight-JAK-1 substrate, Eu-labeled anti-phosphotyrosine antibody); assay type: biochemical; conditions: JAK1 10 nM, substrate 50 nM, ATP 40 μM, 2 hours at room temperature
Experimental: as §1, §2, §3, §4, §5, §6, §7, §8, §9, §10, §11, §12, §13, §14
(6) For the JAK1 reaction, the final concentrations of components are as follows: JAK1: 10 nM, substrate: 50 nM, ATP: 40 μM; and the final concentration of the tested compounds ranges from 10μ M to 0.5 nM.
as §15, §16, §17, §18, §19

JAK2, sequence (O60674 whole entry, species assumed): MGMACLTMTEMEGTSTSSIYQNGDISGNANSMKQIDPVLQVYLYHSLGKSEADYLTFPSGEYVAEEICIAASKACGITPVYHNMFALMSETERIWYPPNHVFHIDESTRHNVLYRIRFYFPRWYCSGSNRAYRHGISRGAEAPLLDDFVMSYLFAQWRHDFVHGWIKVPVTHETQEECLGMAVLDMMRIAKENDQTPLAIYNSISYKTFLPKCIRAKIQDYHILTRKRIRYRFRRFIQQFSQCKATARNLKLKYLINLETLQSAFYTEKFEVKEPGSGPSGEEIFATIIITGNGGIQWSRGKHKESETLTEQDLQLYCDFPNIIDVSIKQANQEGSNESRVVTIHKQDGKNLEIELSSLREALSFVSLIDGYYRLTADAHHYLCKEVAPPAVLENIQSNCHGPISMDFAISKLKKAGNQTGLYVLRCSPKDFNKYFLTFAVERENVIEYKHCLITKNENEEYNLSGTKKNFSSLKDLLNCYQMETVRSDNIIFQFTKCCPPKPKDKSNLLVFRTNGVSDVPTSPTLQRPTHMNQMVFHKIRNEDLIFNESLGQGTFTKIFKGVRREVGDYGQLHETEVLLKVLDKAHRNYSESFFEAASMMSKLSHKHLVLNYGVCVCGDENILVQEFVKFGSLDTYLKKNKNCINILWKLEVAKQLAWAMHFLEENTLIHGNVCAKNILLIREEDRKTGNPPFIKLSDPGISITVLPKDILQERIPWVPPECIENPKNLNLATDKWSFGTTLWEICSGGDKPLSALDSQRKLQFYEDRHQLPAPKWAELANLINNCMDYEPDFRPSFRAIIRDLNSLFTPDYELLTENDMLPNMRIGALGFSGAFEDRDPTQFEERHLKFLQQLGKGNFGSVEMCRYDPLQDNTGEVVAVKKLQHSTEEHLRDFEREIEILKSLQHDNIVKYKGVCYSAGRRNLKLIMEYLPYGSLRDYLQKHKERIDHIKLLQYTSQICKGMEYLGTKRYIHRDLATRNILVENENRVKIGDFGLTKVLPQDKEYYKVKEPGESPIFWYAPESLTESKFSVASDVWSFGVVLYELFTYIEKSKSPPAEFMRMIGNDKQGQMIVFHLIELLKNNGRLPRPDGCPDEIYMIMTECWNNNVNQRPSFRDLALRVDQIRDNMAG
JAK1, sequence (P23458 whole entry, species assumed): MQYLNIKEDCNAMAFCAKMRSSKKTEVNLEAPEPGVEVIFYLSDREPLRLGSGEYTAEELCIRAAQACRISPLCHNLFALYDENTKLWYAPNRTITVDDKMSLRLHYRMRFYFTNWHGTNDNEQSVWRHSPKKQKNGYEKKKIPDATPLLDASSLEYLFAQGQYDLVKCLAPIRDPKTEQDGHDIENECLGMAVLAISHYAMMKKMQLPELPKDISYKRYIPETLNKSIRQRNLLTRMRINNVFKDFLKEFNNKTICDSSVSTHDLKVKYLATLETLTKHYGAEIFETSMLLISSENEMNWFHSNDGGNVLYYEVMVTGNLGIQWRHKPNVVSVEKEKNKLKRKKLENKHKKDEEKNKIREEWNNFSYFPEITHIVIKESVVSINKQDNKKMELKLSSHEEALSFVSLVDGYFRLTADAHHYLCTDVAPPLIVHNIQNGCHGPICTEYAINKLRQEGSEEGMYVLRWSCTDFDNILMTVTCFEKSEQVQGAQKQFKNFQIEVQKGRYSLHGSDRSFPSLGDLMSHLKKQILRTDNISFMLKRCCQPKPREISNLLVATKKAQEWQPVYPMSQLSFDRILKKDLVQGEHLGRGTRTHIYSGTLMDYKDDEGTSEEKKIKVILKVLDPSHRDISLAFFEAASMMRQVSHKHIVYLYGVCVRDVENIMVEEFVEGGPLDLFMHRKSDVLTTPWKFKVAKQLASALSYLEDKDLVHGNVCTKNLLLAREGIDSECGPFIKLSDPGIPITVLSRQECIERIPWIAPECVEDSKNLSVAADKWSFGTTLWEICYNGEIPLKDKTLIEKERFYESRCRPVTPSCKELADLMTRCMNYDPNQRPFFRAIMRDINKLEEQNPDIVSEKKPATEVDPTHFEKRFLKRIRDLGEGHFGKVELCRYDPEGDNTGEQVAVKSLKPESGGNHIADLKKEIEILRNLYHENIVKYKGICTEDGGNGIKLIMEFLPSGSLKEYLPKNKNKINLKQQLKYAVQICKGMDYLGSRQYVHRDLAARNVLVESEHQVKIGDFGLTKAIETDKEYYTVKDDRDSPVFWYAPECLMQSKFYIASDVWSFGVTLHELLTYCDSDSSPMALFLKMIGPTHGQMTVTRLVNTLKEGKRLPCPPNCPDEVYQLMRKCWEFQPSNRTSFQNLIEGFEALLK

C[C@@H](OC(=O)C(C)(C)Oc1ccccc1/N=N/c1ccc(O)c(C(=O)O)c1)c1nc2cnc3[nH]ccc3c2n1N1CCC(CC#N)CC1 [Compound A3, (R,E)-5-((2-((1-(1-(1-(4-cyanomethylpiperidin-1-yl)-1,6-dihydroimidazo[4,5-d]pyrrolo[2,3-b]pyridin-2-yl)ethoxy)-2-methyl-1-oxopropan-2-yl)oxy)phenyl)diazenyl)-2-hydroxybenzoic acid]
IC50 (JAK2): 102 nM | presence of the prodrug in plasma (in words) ([1]; after gavage of the prodrug itself): absent or rarely present in plasma | AUC0-t ([1]; plasma, administration group Compound A3 40 mg/kg by gavage): 8.92 ng·h/g | Cmax ([1]; rat, po, plasma, administration group Compound A3 40 mg/kg by gavage, read-out: Cmax): 2.08 ng/mL | Tmax ([1]; rat, po, plasma, administration group Compound A3 40 mg/kg by gavage, read-out: Tmax): 4 h | Cumulative recovery rate at 24 h (%) [2]: 0.78% | amount (AUC) of active metabolite A13 in the colonic tissue after prodrug A3 compared with compound A13 ([3]; colon tissue 0.5-48 hours): more in the colonic tissue | amount (AUC) of active metabolite A13 in the blood after prodrug A3 compared with compound A13 ([3]; plasma 0.5-48 hours): less in the blood | IC50 (JAK1): 7.04 nM
